Experimental data published in US20040241239A1, “Mixed complexes for masking the taste of bitter active substances” (priority 2001, published 2004).
Converted amounts (≈) assume the structure as drawn.

Assay: Solubility of HMR 3647
Format: physicochemical
Method: HMR 3647 has the chemical formula C43H65N5O10 and has a molecular weight of 812.0 g/mol. […] At acidic pH, the solubility can be increased to 80 mg/ml, since the protonated cation is formed at this pH.

solubility (aqueous medium at acidic pH, aqueous buffer, acidic pH, protonated cation): 80 mg/mL (≈ 98.5 mM) | water solubility (water): very poorly water-soluble
Compound: CC[C@H]1OC(=O)[C@H](C)C(=O)[C@H](C)[C@@H](O[C@@H]2O[C@H](C)C[C@H](N(C)C)[C@H]2O)[C@](C)(OC)C[C@@H](C)C(=O)[C@H](C)[C@H]2N(CCCCn3cnc(-c4cccnc4)c3)C(=O)O[C@]12C [HMR 3647]
